*1 amine or outer side, *2 acyl side, *3 side chain or, on linkers, in order; H or OH if unused. Where a SMILES comes first, the peptide text is derived from it. Bridges are numbered along the chain shown (N, C = ends). Where no end group is shown, it is not given here. [ ]: non-standard residue; d: D form. The star is where a group is joined. 4‑Aminomethyl‑phenylacetyl = 4-aminomethyl-phenylacetyl unit, its amine closes the lactam, O=C(Cc1ccc(CN[*:1])cc1)[*:2]; dGly‑CF3 = O=C([C@H](N[*:1])C(F)(F)F)[*:2]; 2Nal = N[C@@H](Cc1ccc2ccccc2c1)C(=O)O; AEF = NCCOc1ccc(C[C@H](N)C(=O)O)cc1; X1 = O=C(Cc1ccc(CN[*:1])cc1)[*:2]; 3Pal = N[C@@H](Cc1cccnc1)C(=O)O; αMeL = CC(C)C[C@](C)(N)C(=O)O; Pyrrolidide = C1CCN(*)C1; Dab = NCC[C@H](N)C(=O)O

In one assay the target is T1, human IL-23R (Homo sapiens, UniProt Q5VWK5).
T1 sequence (Q5VWK5 22-629): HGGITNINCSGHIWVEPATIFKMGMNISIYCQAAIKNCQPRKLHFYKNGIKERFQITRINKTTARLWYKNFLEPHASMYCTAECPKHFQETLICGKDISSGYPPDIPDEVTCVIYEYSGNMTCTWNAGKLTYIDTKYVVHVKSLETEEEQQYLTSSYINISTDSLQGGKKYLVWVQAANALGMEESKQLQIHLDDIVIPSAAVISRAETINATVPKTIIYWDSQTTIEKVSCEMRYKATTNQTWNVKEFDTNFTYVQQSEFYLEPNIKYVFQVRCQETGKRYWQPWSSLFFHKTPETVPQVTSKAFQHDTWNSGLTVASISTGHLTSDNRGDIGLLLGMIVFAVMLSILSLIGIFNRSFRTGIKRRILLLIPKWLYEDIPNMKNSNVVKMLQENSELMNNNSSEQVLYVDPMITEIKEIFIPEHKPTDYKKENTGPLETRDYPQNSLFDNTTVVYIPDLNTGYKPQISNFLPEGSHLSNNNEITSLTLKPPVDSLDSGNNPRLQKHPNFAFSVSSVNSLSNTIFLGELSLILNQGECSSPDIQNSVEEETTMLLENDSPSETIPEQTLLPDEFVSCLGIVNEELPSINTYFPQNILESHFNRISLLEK
Description: biochemical. To be noted: for Emax: read-out: % displacement (hIL-23R binding). The text has this: The compound binding affinity for IL-23R was estimated by the ability of compounds to displace a fluorophore-labelled reference compound from the human IL-23R. The assay principle relies on Bioluminescence Resonance Energy Transfer (BRET) between a fluorophore-labelled reference compound binding to the IL-23R part of a fusion protein consisting of the IL-23R fused to a Nanoluc luciferase enzyme (Nanoluc). The Nanoluc is placed in the N-terminus in close proximity to the binding domain of the ligand. Upon close proximity between the fluorophore of the fluorophore-labelled compound and the Nanoluc of the fusion protein, bioluminescence energy generated from conversion of a Nanoluc substrate, is transferred to the fluorophore resulting in an increase in BRET. In presence of an unlabelled compound, the unlabelled compound displaces the fluorophore-labelled peptide from its binding site resulting in a decrease in BRET. The concentration for which half of the fluorophore-labelled peptide is displaced by the unlabelled compound depends on the affinity of the compound for the IL-23R, and is termed the IC50 concentration.
The plasmid also contained a gene to confer resistance for the antibiotic hygromycin. A cell line stably expressing the Nluc-IL23R fusion protein was generated by transfection of HEK293 cells with the expression plasmid and selected with hygromycin for 3 weeks in Growth medium consisting of DMEM w/ Glutamax-I containing, 10% V/V FBS, 1% V/V P/S, 1 mM Sodium Pyruvate, and 1X NEAA, and 0.3 mg/mL hygromycin. The remaining cells were propagated and considered a stable expressing Nluc-IL23R fusion protein pool clone.
Cells expressing the Nluc-IL23R fusion protein were expanded in Growth medium and membranes prepared by homogenization of a cell pellet from 18 T175 flasks (4 °C in subsequent steps). The cell pellet was lysed Tris 10 mM, 7.5, 1 mM EDTA and protease inhibitors (Complete, Roche) and homogenized using a 15 mL glass-dounce by 50 strokes. The homogenate was spun at spin @1500 rpm for 10 min, the supernatant transferred to SV-34 tubes and spun at 40000g for 20 min at 4 °C to pellet the crude membranes. The supernatant was then removed, the pellet resuspended in 5 mL buffer containing 50 mM HEPES pH 7.4, 5 mM EGTA, and 5 mM MgCl2, and homogenized. Aliquots of the resuspended and homogenized membranes containing the Nluc-IL23R fusion protein were stored at -80 °C until use.
The plate was sealed with light impermeable plate seals, and incubated on an orbital shaker 400 rpm for 2 hours at room temperature. To determine the BRET ratio, the plate seal was removed and 25 µL of the Nanoluc substrate (Promega N1572) diluted 1:500 was added to each well and incubated for 1-2 minutes on an orbital shaker at 400 rpm. […] The BRET ratio was calculated as the fluorescence from the TAMRA/nanoluc bioluminescence.
Compound potency (IC50) and maximal displacement (% displacement) were estimated by computer-aided curve fitting using a 4-parameter logistic (4PL) non-linear model. […]
In this application, the inventors provide the data as IC50 values.

For assay [1], the target named is T2, human IL-23R endogenously expressed on DB cells (human, UniProt Q5VWK5 24-629).
T2 sequence (looked up): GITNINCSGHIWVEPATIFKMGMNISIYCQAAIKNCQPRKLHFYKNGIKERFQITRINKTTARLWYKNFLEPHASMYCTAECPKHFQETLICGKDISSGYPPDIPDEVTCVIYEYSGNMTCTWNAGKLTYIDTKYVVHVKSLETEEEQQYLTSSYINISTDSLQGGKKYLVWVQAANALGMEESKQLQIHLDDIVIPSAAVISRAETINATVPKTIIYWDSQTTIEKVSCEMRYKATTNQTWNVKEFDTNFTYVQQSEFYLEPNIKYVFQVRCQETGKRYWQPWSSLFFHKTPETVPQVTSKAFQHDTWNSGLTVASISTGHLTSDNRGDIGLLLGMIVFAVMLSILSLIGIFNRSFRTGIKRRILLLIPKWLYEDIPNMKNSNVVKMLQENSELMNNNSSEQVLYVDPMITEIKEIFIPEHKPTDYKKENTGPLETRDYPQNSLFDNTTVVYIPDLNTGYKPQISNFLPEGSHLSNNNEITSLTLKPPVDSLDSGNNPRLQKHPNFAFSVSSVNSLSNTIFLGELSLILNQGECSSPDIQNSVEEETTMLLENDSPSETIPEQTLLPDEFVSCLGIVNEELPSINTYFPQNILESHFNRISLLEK
Description: cell-based or functional assay.

Regarding `CNC(=O)[C@H](Cc1cccnc1)NC(=O)[C@H](CCN)NC(=O)[C@@H]1CCC(=O)NCc2ccc(cc2)CC(=O)N[C@@H](CO)C(=O)N[C@H]2CCC(=O)NCC[C@H](NC(=O)[C@H](CCC(=O)N3CCCC3)NC(=O)[C@H](Cc3c[nH]c4ccccc34)NC2=O)C(=O)N[C@@H](Cc2ccc(OCCN)cc2)C(=O)N[C@@H](Cc2ccc3ccccc3c2)C(=O)N[C@@](C)(CC(C)C)C(=O)N1` [Compound 27, [4-Aminomethyl-phenylacetyl](1c)*SE(2c)W[Q(pyrrolidin)][Dab](2c)[Y(2-aminoethoxy)][2-Nal][2-Me-Leu]E(1c)[Dab][3-(3-Pyridyl)-Ala]-[NHMe]] ([X1]SEWE(Pyrrolidide)[Dab][AEF][2Nal][αMeL]E[Dab][3Pal]-NHMe; lactam 3-6, N-10), the “% displacement (hIL-23R binding)” value on human IL-23R stood at 97%.

Consider `CC(C)C[C@]1(C)NC(=O)[C@H](Cc2ccc3ccccc3c2)NC(=O)[C@H](Cc2ccc(OCCN)cc2)NC(=O)[C@@H]2CCNC(=O)CC[C@H](NC(=O)[C@H](CO)NC(=O)Cc3ccc(cc3)CNC(=O)CC[C@@H](C(=O)NC[C@H](N[C@@H](Cc3cccnc3)C(N)=O)C(F)(F)F)NC1=O)C(=O)N[C@@H](Cc1c[nH]c3ccccc13)C(=O)N[C@@H](CCC(N)=O)C(=O)N2` [Compound 17, [4-Aminomethyl-phenylacetyl](1c)*SE(2c)WQ[Dab](2c)[Y(2-aminoethoxy)][2-Nal][2-Me-Leu]E(1c)[Gly-CF3][3-(3-Pyridyl)-Ala]-[NH2]], for which the “% displacement (hIL-23R binding)” value at human IL-23R is listed as 98%.

As usually defined, the IC50 is the concentration that gives 50% inhibition. Consider `CNC(=O)[C@H](Cc1cncnc1)NC(=O)[C@H](CCN)NC(=O)[C@@H]1CCC(=O)NCc2ccc(cc2)CC(=O)N[C@@H](CO)C(=O)N[C@H]2CCC(=O)NCC[C@H](NC(=O)[C@H](CCC(N)=O)NC(=O)[C@H](Cc3c[nH]c4ccccc34)NC2=O)C(=O)N[C@@H](Cc2ccc(OCCN)cc2)C(=O)N[C@@H](Cc2ccc3ccccc3c2)C(=O)N[C@@](C)(CC(C)C)C(=O)N1` [Compound 19, [4-Aminomethyl-phenylacetyl](1c)*SE(2c)WQ[Dab](2c)[Y(2-aminoethoxy)][2-Nal][2-Me-Leu]E(1c)[Dab][3-(3,5-Pyrimidyl)-Ala]-[NHMe]], for which, on human IL-23R, the “% displacement (hIL-23R binding)” value was 103% and it took 54 pM to reach half-maximal inhibition (IC50).

Take `CNC(=O)[C@H](Cc1cccnc1)NC(=O)[C@H](CCN)NC(=O)[C@@H]1CCC(=O)NCc2ccc(cc2)CC(=O)N[C@@H](CO)C(=O)N[C@H]2CCC(=O)NCC[C@H](NC(=O)[C@H](Cc3ccccc3)NC(=O)[C@H](Cc3c[nH]c4ccccc34)NC2=O)C(=O)N[C@@H](Cc2ccc(OCCN)cc2)C(=O)N[C@@H](Cc2ccc3ccccc3c2)C(=O)N[C@@](C)(CC(C)C)C(=O)N1` [Compound 23, [4-Aminomethyl-phenylacetyl](1c)*SE(2c)WF[Dab](2c)[Y(2-aminoethoxy)][2-Nal][2-Me-Leu]E(1c)[Dab][3-(3-Pyridyl)-Ala]-[NHMe]] ([X1]SEWF[Dab][AEF][2Nal][αMeL]E[Dab][3Pal]-NHMe; lactam 3-6, N-10): the “% displacement (hIL-23R binding)” value at human IL-23R worked out at 97%.

As for `CNC(=O)[C@H](Cc1cccnc1)NC(=O)[C@H](CCN)NC(=O)[C@@H]1CCC(=O)NCc2ccc(cc2)CC(=O)N[C@@H](C)C(=O)N[C@H]2CCC(=O)NCC[C@H](NC(=O)[C@H](CCC(N)=O)NC(=O)[C@H](Cc3c[nH]c4ccccc34)NC2=O)C(=O)N[C@@H](Cc2ccc(OCCN)cc2)C(=O)N[C@@H](CC2CC2)C(=O)NC(C)(C)C(=O)N1` [Compound 42, [4-Aminomethyl-phenylacetyl](1c)*AE(2c)WQ[Dab](2c)[Y(2-aminoethoxy)][Cyclopropyl-Ala][Aib]E(1c)[Dab][3-(3-Pyridyl)-Ala]-[NHMe]], at human IL-23R, the “% displacement (hIL-23R binding)” value was determined as 100%.

`CC(C)C[C@]1(C)NC(=O)[C@H](Cc2ccc3ccccc3c2)NC(=O)[C@H](Cc2ccc(OCCN)cc2)NC(=O)[C@@H]2CCNC(=O)CC[C@H](NC(=O)[C@H](CO)NC(=O)Cc3ccc(cc3)CNC(=O)CC[C@@H](C(=O)NC[C@@H](N[C@@H](Cc3cccnc3)C(N)=O)C(F)(F)F)NC1=O)C(=O)N[C@@H](Cc1c[nH]c3ccccc13)C(=O)N[C@@H](CCC(N)=O)C(=O)N2` [Compound 16, [4-Aminomethyl-phenylacetyl](1c)*SE(2c)WQ[Dab](2c)[Y(2-aminoethoxy)][2-Nal][2-Me-Leu]E(1c)[{d}Gly-CF3][3-(3-Pyridyl)-Ala]-[NH2]]: on human IL-23R, the IC50 was determined as 130 pM and the Emax came to 101%.

In the case of `CNC(=O)[C@H](Cc1cccnc1)NC(=O)[C@H](CCN)NC(=O)[C@@H]1CCC(=O)NCc2ccc(cc2)CC(=O)N[C@@H](C)C(=O)N[C@H]2CCC(=O)NCC[C@H](NC(=O)[C@H](CCC(N)=O)NC(=O)[C@H](Cc3c[nH]c4ccccc34)NC2=O)C(=O)N[C@@H](Cc2ccc(OCCN)cc2)C(=O)N[C@@H](Cc2c[nH]c3ccccc23)CC(=O)NC(C)(C)C(=O)N1` [Compound 46, [4-Aminomethyl-phenylacetyl](1c)*AE(2c)WQ[Dab](2c)[Y(2-aminoethoxy)][beta-hTrp][Aib]E(1c)[Dab][3-(3-Pyridyl)-Ala]-[NHMe]], at human IL-23R, the half-inhibitory concentration (IC50) is 57000 pM and the Emax was determined as 101%.

B1: Ref 125 (peptide)
peptide: [4‑Aminomethyl‑phenylacetyl]SEWQ[Dab][AEF][2Nal][αMeL]E[Dab]-NH2
modifications: lactam (positions not given here); lactam 3-6; not fully specified (bridges); printed as [4-Aminomethyl-phenylacetyl](1c)*SE(2c)WQ[Dab](2c)[Y(2-aminoethoxy)][2-Nal][2-Me-Leu]E(1c)[Dab]-[NH2]
Take B1: in assay [1], the “hIL-23 (pSTAT3) antagonist % inhibition” value is 98% and the “hIL-23 (pSTAT3) antagonist IC50” value amounted to 21 nM.

B2: I3 (isomer 3) (peptide)
peptide: H-DCSCWQCWWLCR-NH2
modifications: bridge 4-7, 2-11; not fully specified (bridges)
With B2, the “hIL-23 (pSTAT3) antagonist % inhibition” value in assay [1] came out at 100%.

B3: Compound 16 (peptide)
peptide: [4‑Aminomethyl‑phenylacetyl]SEWQ[Dab][AEF][2Nal][αMeL]E[dGly‑CF3][3Pal]-NH2
modifications: lactam (positions not given here); lactam 3-6; not fully specified (bridges)
Regarding B3, in assay [1], the “hIL-23 (pSTAT3) antagonist % inhibition” value stood at 97% and the “hIL-23 (pSTAT3) antagonist IC50” value is 1.4 nM.

The record behind these values is EP4471049A1 (Zealand Pharma A/S, priority 2023, dated 2024).
